From PMC4859520, “Binding Properties of General Odorant Binding Proteins from the Oriental Fruit Moth, Grapholita molesta (Busck) (Lepidoptera: Tortricidae)” (PLoS ONE, 2016)
Like-named read-outs stand apart in the source and are kept apart here.

How the values were obtained:
GmolGOBP1 = GmolGOBP1 (Grapholita molesta, UniProt H9XTU5); assay: Fluorescence competitive binding assay with probe 1-NPN, rGmolGOBP1; details: for binding to rGmolGOBP1 (in words): competitive binding with 1-NPN
Procedure: (§1) Fluorescence binding assays were performed on a Hitachi (Tokyo, Japan) F-4500 fluorescence spectrophotometer with a 1 cm light path fluorimeter quartz cuvette. Both of the slit widths for excitation and emission were 10 nm. 1-N-phenyl-naphthylamine (1-NPN) was dissolved in HPLC purity grade methanol to yield a 1 mM stock solution. […] The probes were excited at 337 nm and emission spectra were recorded between 370 and 550 nm. […] Binding data were collected in three independent measurements.
(§2) Dissociation constants of the complex GmolGOBPs/1-NPN (K1-NPN) were calculated by a nonlinear regression binding curve, using Prism 5.0 (GraphPad Software Inc.).

GmolGOBP2 = GmolGOBP2 (Grapholita molesta, UniProt H9XTU6); assay: Fluorescence competitive binding assay with probe 1-NPN, rGmolGOBP2 wild-type
Procedure: as §1, §2

rGmolPBP1 = target: rGmolPBP1; set-up: method as in earlier work; details: cited from earlier work
rGmolOBP8 = target: rGmolOBP8; set-up: method as in PMID 26609640; details: cited from earlier work
rGmolOBP11 = target: rGmolOBP11; set-up: method as in PMID 26609640; details: cited from earlier work
GmolGOBP2 T9A = GmolGOBP2 T9A (Grapholita molesta, UniProt H9XTU6, T29A); assay: Fluorescence competitive binding assay, GmolGOBP2 mutant T9A
Procedure: (§3) Fluorescence binding assays were performed on a Hitachi (Tokyo, Japan) F-4500 fluorescence spectrophotometer with a 1 cm light path fluorimeter quartz cuvette. Both of the slit widths for excitation and emission were 10 nm. 1-N-phenyl-naphthylamine (1-NPN) was dissolved in HPLC purity grade methanol to yield a 1 mM stock solution. A 2 μM solution of the protein in 20 mM Tris-HCl, pH 7.4, was titrated with aliquots of 1 mM 1-NPN to final concentrations of 1, 2, 4, 6, 8, 10, 12, 14, 16, 18, and 22 μM. The probes were excited at 337 nm and emission spectra were recorded between 370 and 550 nm. All ligands (S1 File) used in competitive binding assays were also dissolved in HPLC purity grade methanol. The final concentrations of sex pheromones were between 1 and 22 μM for each rGmolGOBP protein, whereas the concentrations of 30 synthetic plant volatiles to rGmolGOBP1 and 2 were up to 64 and 100 μM, respectively. Binding data were collected in three independent measurements.
(§4) Dissociation constants of the complex GmolGOBPs/1-NPN (K1-NPN) were calculated by a nonlinear regression binding curve, using Prism 5.0 (GraphPad Software Inc.). The inhibition constants (Ki) of the competitors were computed from the corresponding IC50 values using the equation: Ki = [IC50]/(1+[1−NPN]/K1−NPN), where [1−NPN] is the free concentration of 1−NPN and K1-NPN is the dissociation constant of the complex protein/1-NPN.
(§5) Gene-specific primers were designed in accordance with the recommended protocols of the TaKaRa MutanBEST Kit (TaKaRa, Shiga, Japan). The GmolGOBP2 coding sequence was mutated to create the three mutants GmolGOBP2 T9A (threonine to alanine at position 9), GmolGOBP2 V111A (valine to alanine at position 111), and GmolGOBP2 V114A (valine to alanine at position 114). Mutations were obtained using the TaKaRa MutanBEST Kit with Pyrobest DNA polymerase with the pMD19-T/GmolGOBP2 plasmid DNA as template. All plasmids containing mutations were verified by DNA sequencing. Mutated protein expression and enrichment were performed as described above for rGmolGOBP1 and 2. After determining concentrations, purified mutants were applied to verify the binding affinities with dodecanol and its analogs in fluorescence ligand-binding assays.

GmolGOBP2 V111A = GmolGOBP2 V111A (Grapholita molesta, UniProt H9XTU6, V131A); assay: Fluorescence competitive binding assay, GmolGOBP2 mutant V111A; details: for affinity of V111A mutant versus wild-type (in words): V111A versus wild-type rGmolGOBP2
Procedure: as §3, §4, §5

GmolGOBP2 V114A = GmolGOBP2 V114A (Grapholita molesta, UniProt H9XTU6, V134A); assay: Fluorescence competitive binding assay, GmolGOBP2 mutant V114A; details: for affinity of V114A mutant versus wild-type (in words): V114A versus wild-type rGmolGOBP2
Procedure: as §3, §4, §5

[1] = protein and 1-NPN 2 μM, pH 7.4, calculated from IC50, read-out: GmolGOBP1 Ki
[2] = protein and 1-NPN 2 μM, pH 7.4, displacing half of initial fluorescence, read-out: GmolGOBP1 IC50
[3] = protein and 1-NPN 2 μM, pH 7.4, calculated from IC50, read-out: GmolGOBP2 Ki
[4] = protein and 1-NPN 2 μM, pH 7.4, displacing half of initial fluorescence, read-out: GmolGOBP2 IC50
[5] = T9A versus wild-type rGmolGOBP2

Chain of GmolGOBP1 (H9XTU5 entry or part of it): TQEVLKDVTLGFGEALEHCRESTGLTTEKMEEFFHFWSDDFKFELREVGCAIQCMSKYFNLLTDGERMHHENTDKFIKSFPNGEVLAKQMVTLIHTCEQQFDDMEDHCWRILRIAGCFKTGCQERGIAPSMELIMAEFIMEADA
Chain of GmolGOBP2 (H9XTU6 entry or part of it): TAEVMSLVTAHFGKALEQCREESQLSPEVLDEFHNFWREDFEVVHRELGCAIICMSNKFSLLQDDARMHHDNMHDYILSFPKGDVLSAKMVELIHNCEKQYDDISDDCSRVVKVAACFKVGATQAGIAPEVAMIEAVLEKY
Chain of GmolGOBP2 V114A (H9XTU6 entry or part of it V134A): as the sequence (H9XTU6 entry or part of it) above, with V114A counted along it
Chain of GmolGOBP2 V111A (H9XTU6 entry or part of it V131A): as the sequence (H9XTU6 entry or part of it) above, with V111A counted along it
Chain of GmolGOBP2 T9A (H9XTU6 entry or part of it T29A): as the sequence (H9XTU6 entry or part of it) above, with T9A counted along it

SMILES: CCCCCCC=O [Heptanal]
- Ki (GmolGOBP1; [1]): 34.2 µM
- IC50 (GmolGOBP1; [2]): 37.1 ± 4.5 µM

SMILES: CCCCCCCCCCCCCCCC [Hexadecane]
- binding to rGmolGOBP1 (in words) (GmolGOBP1): very weak binding affinities

SMILES: CCCCCC=O [Hexanal]
- IC50 (GmolGOBP1): 33.6 ± 2 µM
- Ki (GmolGOBP1): 30.9 µM

SMILES: CCCCCCOC(C)=O [Hexyl acetate]
- Ki (GmolGOBP2; [3]): 81.6 µM
- IC50 (GmolGOBP2; [4]): 98.8 ± 3.63 µM
- Ki (GmolGOBP1; [1]): 27.5 µM
- IC50 (GmolGOBP1; [2]): 29.9 ± 4.11 µM

SMILES: CC(=O)OCCC(C)C [Isoamyl acetate]
- Ki (GmolGOBP1; [1]): 26.6 µM
- IC50 (GmolGOBP1; [2]): 29 ± 2.18 µM

SMILES: CC/C=C\CC1C(=O)CCC1CC(=O)OC (centres unmarked) [Methyl jasmonate]
- Ki (GmolGOBP2; [3]): 60.8 µM
- IC50 (GmolGOBP2; [4]): 73.7 ± 5 µM
- Ki (GmolGOBP1; [1]): 35.8 µM
- IC50 (GmolGOBP1; [2]): 38.9 ± 1.56 µM

SMILES: COC(=O)c1ccccc1O [Methyl salicylate]
- IC50 (GmolGOBP2): 93.7 ± 5.55 µM
- Ki (GmolGOBP2): 77.3 µM
- IC50 (GmolGOBP1): 49.8 ± 6.48 µM
- Ki (GmolGOBP1): 45.8 µM

SMILES: CCCCCCCCC=O [Nonanal]
- Ki (GmolGOBP2; [3]): 75.3 µM
- IC50 (GmolGOBP2; [4]): 91.2 ± 5.49 µM
- Ki (GmolGOBP1; [1]): 54.4 µM
- IC50 (GmolGOBP1; [2]): 59.2 ± 8.7 µM

SMILES: CCCCCCCCCCCCCCCCCC [Octadecane]
- binding to rGmolGOBP1 (in words) (GmolGOBP1): very weak binding affinities

SMILES: CCCCCCCC=O [Octanal]
- Ki (GmolGOBP2; [3]): 66.4 µM
- IC50 (GmolGOBP2; [4]): 80.4 ± 3.79 µM
- Ki (GmolGOBP1; [1]): 21.5 µM
- IC50 (GmolGOBP1; [2]): 23.3 ± 1.43 µM

SMILES: CCCCCCCCCCCCCCC [Pentadecane]
- Ki (GmolGOBP1; [1]): 11.4 µM
- IC50 (GmolGOBP1; [2]): 12.4 ± 1.87 µM

SMILES: CCCCCCCCCCCCCC [Tetradecane]
- Ki (GmolGOBP1; [1]): 8.47 µM
- IC50 (GmolGOBP1; [2]): 9.21 ± 1.31 µM

SMILES: CCC/C=C\CCCCCCCOC(C)=O [Z8-12:AC, (Z)-8-dodecenyl acetate]
- Ki (GmolGOBP2; [3]): 14.4 µM
- IC50 (GmolGOBP2; [4]): 17.4 ± 0.87 µM
- binding to rGmolGOBP1 (in words) (GmolGOBP1): did not bind
- Ki (rGmolPBP1): 1100 nM

SMILES: CCC/C=C\CCCCCCCO [Z8-12:OH, (Z)-8-dodecenyl alcohol]
- Ki (rGmolOBP8): 5.59 µM
- Ki (GmolGOBP2; [3]): 12.8 µM
- IC50 (GmolGOBP2; [4]): 15.5 ± 0.52 µM
- Ki (GmolGOBP1; [1]): 3.14 µM
- IC50 (GmolGOBP1; [2]): 3.85 ± 0.41 µM
- Ki (rGmolOBP11): 3.05 µM

SMILES: CCCCCCCCCCO [decanol]
- Ki (GmolGOBP2 T9A): 39.6 ± 2.34 µM
- decrease in affinity of T9A mutant (GmolGOBP2 T9A; [5]): 3-5 fold
- Ki (GmolGOBP2 V111A): 11300 ± 170 nM
- affinity of V111A mutant versus wild-type (in words) (GmolGOBP2 V111A): no differences
- Ki (GmolGOBP2): 15.3 ± 1 µM
- Ki (GmolGOBP2 V114A): 15600 ± 430 nM
- affinity of V114A mutant versus wild-type (in words) (GmolGOBP2 V114A): no differences

SMILES: CCCCCCCCCCCCCCCCO [hexadecanol]
- Ki (GmolGOBP2 T9A): 22.4 ± 3.03 µM
- affinity of T9A mutant versus wild-type (in words) (GmolGOBP2 T9A; [5]): drastical decline in affinity
- Ki (GmolGOBP2 V111A): 1360 ± 130 nM
- affinity of V111A mutant versus wild-type (in words) (GmolGOBP2 V111A): no differences
- Ki (GmolGOBP2; rGmolGOBP2 wild-type, protein and 1-NPN 2 μM, ligand 0 to 14 μM, read-out: Ki Wild-Type): 1.35 ± 0.45 µM
- Ki (GmolGOBP2 V114A): 1990 ± 740 nM
- affinity of V114A mutant versus wild-type (in words) (GmolGOBP2 V114A): no differences

SMILES: CCCCCCCCCCCCCCO [tetradecanol]
- affinity of T9A mutant versus wild-type (in words) (GmolGOBP2 T9A; [5]): drastical decline in affinity
- Ki (GmolGOBP2 T9A; mutant T9A, protein and 1-NPN 2 μM, ligand 0 to 14 μM, read-out: Ki T9A): 5.75 ± 0.86 µM
- affinity of V111A mutant versus wild-type (in words) (GmolGOBP2 V111A): no differences
- Ki (GmolGOBP2 V111A; mutant V111A, protein and 1-NPN 2 μM, ligand 0 to 14 μM, read-out: Ki V111A): 300 ± 160 nM
- Ki (GmolGOBP2): 0.36 ± 0.05 µM
- affinity of V114A mutant versus wild-type (in words) (GmolGOBP2 V114A): no differences
- Ki (GmolGOBP2 V114A; mutant V114A, protein and 1-NPN 2 μM, ligand 0 to 14 μM, read-out: Ki V114A): 370 ± 140 nM

SMILES: C=C/C(C)=C/CCC(=C)C [α-Ocimene]
- Ki (GmolGOBP2; [3]): 44.1 µM
- IC50 (GmolGOBP2; [4]): 53.4 ± 4.91 µM
- Ki (GmolGOBP1; [1]): 12.4 µM
- IC50 (GmolGOBP1; [2]): 13.5 ± 0.79 µM

SMILES: CC1=CCC2CC1C2(C)C (stereo not drawn) [α-Pinene]
- IC50 (GmolGOBP2): 51.7 ± 7.11 µM
- Ki (GmolGOBP2): 42.6 µM
- IC50 (GmolGOBP1): 16.1 ± 1.22 µM
- Ki (GmolGOBP1): 14.8 µM
